{"source": "patent US11980618B2", "about": "“Nitric oxide releasing phosphodiesterase type 5 inhibitor” (NICOX S.A., priority 2018, dated 2024)", "key": {"[1]": {"tested_on": "laser-induced ocular hypertensive non-human primates", "test": "Intraocular pressure (IOP) lowering effect in laser-induced ocular hypertensive non-human primates (topical dosing, pneumatonometer)", "assay_type": "in vivo"}, "[2]": {"tested_on": "ocular normotensive New Zealand white rabbits", "test": "Intraocular pressure (IOP) lowering effects in ocular normotensive New Zealand white rabbits (topical dosing, pneumatonometer)", "assay_type": "in vivo"}, "[3]": {"details": "Example 26, 2.0% w/v, 30 μL topical"}}}
{"smiles": "O=C(O)CCCCCO[N+](=O)[O-]", "note": "[(IIIa)-OH, 6-(nitrooxy)hexanoic acid]", "values": [{"measurement": "IOP change (mmHg) E480", "setting": "[1]; in vivo", "value": "−2.7±1.5", "unit": "mmHg"}, {"measurement": "IOP change (mmHg) Emax", "setting": "[1]; in vivo", "value": "−5.2±1.0", "unit": "mmHg"}]}
{"smiles": "COc1ccc(CNc2nc(N3CCC[C@H]3COC(=O)CCCCCO[N+](=O)[O-])ncc2C(=O)NCc2ncccn2)cc1Cl.O=C(O)CC(O)(CC(=O)O)C(=O)O", "note": "[Compound (9)-citrate salt, (S)-(1-(4-(3-chloro-4-methoxybenzylamino)-5-(pyrimidin-2-ylmethylcarbamoyl)pyrimidin-2-yl)pyrrolidin-2-yl)methyl 6-(nitrooxy)hexanoate 2-hydroxypropane-1,2,3-tricarboxylate]", "values": [{"measurement": "IOP change (mmHg) E480", "setting": "[1]; in vivo", "value": "−6.0±2.1", "unit": "mmHg"}, {"measurement": "IOP change (mmHg) Emax", "setting": "[1]; in vivo", "value": "−6.0±2.1", "unit": "mmHg"}]}
{"smiles": "COc1ccc(CNc2nc(N3CCC[C@H]3COC(=O)CCOC[C@@H](CO[N+](=O)[O-])O[N+](=O)[O-])ncc2C(=O)NCc2ncccn2)cc1Cl.O=C(O)CC(O)(CC(=O)O)C(=O)O", "note": "[Compound (12)-(2S)-citrate salt, ((S)-1-(4-(3-chloro-4-methoxybenzylamino)-5-(pyrimidin-2-ylmethylcarbamoyl)pyrimidin-2-yl)pyrrolidin-2-yl)methyl 3-((S)-2,3-bis(nitrooxy)propoxy)propanoate 2-hydroxypropane-1,2,3-tricarboxylate]", "values": [{"measurement": "IOP change (mmHg) 30 min", "setting": "[2]; rabbit, in vivo", "value": "−5.6 ± 0.9", "unit": "mmHg"}, {"measurement": "IOP change (mmHg) 60 min", "setting": "[2]; rabbit, in vivo", "value": "−3.9 ± 1.0", "unit": "mmHg"}, {"measurement": "IOP change (mmHg) 120 min", "setting": "[2]; rabbit, in vivo", "value": "−2.4 ± 0.8", "unit": "mmHg"}]}
{"smiles": "CCCOc1ccc(S(=O)(=O)N2CCN(CCO)CC2)cc1-c1nc2c(CCC)cn(CC)c2c(=O)[nH]1", "note": "[Mirodenafil, reference compound]", "values": [{"measurement": "IOP change (mmHg) E300 min", "setting": "[1]; Example 22, Table 1, 300 min post-dose, topical 30 μL, 0.48 μmoles/eye (1.17 μmoles/eye for (IIIg)-OH), mean±SEM n=13", "value": "−3.4 ± 2.3", "unit": "mmHg"}, {"measurement": "time post-dosing of Emax", "setting": "[1]; Example 22, Table 1, topical 30 μL, 0.48 μmoles/eye (1.17 μmoles/eye for (IIIg)-OH)", "value": 180, "unit": "min"}, {"measurement": "IOP change (mmHg) Emax", "setting": "[1]; Example 22, Table 1, topical 30 μL, 0.48 μmoles/eye (1.17 μmoles/eye for (IIIg)-OH), change versus basal and vehicle, mean±SEM n=13", "value": "−5.0 ± 2.1", "unit": "mmHg"}, {"measurement": "IOP change (mmHg) 30 min", "setting": "[1]; Example 27, Table 6, 0.31 μmoles/eye (each compound), 30 μL topical, 30 min post-dose, mean±SEM n=13", "value": "−2.2 ± 1.4", "unit": "mmHg"}, {"measurement": "IOP change (mmHg) 60 min", "setting": "[1]; Example 27, Table 6, 0.31 μmoles/eye (each compound), 30 μL topical, 60 min post-dose, mean±SEM n=13", "value": "−4.1 ± 1.5", "unit": "mmHg"}, {"measurement": "IOP change (mmHg) 180 min", "setting": "[1]; Example 27, Table 6, 0.31 μmoles/eye (each compound), 30 μL topical, 180 min post-dose, mean±SEM n=13", "value": "−3.8 ± 1.0", "unit": "mmHg"}, {"measurement": "IOP change (mmHg) 300 min", "setting": "[1]; Example 27, Table 6, 0.31 μmoles/eye (each compound), 30 μL topical, 300 min post-dose, mean±SEM n=13", "value": "−2.2 ± 1.1", "unit": "mmHg"}, {"measurement": "IOP change (mmHg) 1440 min", "setting": "[1]; Example 27, Table 6, 0.31 μmoles/eye (each compound), 30 μL topical, 1440 min post-dose, mean±SEM n=13", "value": "−1.0 ± 1.1", "unit": "mmHg"}, {"measurement": "IOP change (mmHg) E300 min", "setting": "[2]; Example 24, Table 3, 300 min post-dosing, topical 50 μL, 0.5 μmoles/eye (each compound), mean±SEM n=6-9", "value": "−1.46 ± 0.79", "unit": "mmHg"}, {"measurement": "time post-dosing of Emax", "setting": "[2]; Example 24, Table 3, topical 50 μL, 0.5 μmoles/eye (each compound)", "value": 120, "unit": "min"}, {"measurement": "IOP change (mmHg) Emax", "setting": "[2]; Example 24, Table 3, topical 50 μL, 0.5 μmoles/eye (each compound), change versus basal and vehicle, mean±SEM n=6-9", "value": "−3.68 ± 0.89", "unit": "mmHg"}]}
{"smiles": "COc1ccc(CNc2nc(N3CCC[C@H]3COC(=O)CCCCCO[N+](=O)[O-])ncc2C(=O)NCc2ncccn2)cc1Cl.O=C(O)/C=C/C(=O)O", "note": "[Compound (9)-fumarate salt, (S)-(1-(4-(3-chloro-4-methoxybenzylamino)-5-(pyrimidin-2-ylmethylcarbamoyl)pyrimidin-2-yl)pyrrolidin-2-yl)methyl 6-(nitrooxy)hexanoate Fumarate]", "values": [{"measurement": "IOP change (mmHg) 30 min", "setting": "[1]; Example 26, Table 5, 2.0% w/v, 30 μL topical, 30 min post-dosing, mean±SEM n=8 eye", "value": "−4.0 ± 1.3", "unit": "mmHg"}, {"measurement": "IOP change (mmHg) 60 min", "setting": "[1]; Example 26, Table 5, 2.0% w/v, 30 μL topical, 60 min post-dosing, mean±SEM n=8 eye", "value": "−3.5 ± 1.6", "unit": "mmHg"}, {"measurement": "IOP change (mmHg) 300 min", "setting": "[1]; Example 26, Table 5, 2.0% w/v, 30 μL topical, 300 min post-dosing, mean±SEM n=8 eye", "value": "−4.1 ± 2.7", "unit": "mmHg"}, {"measurement": "IOP change (mmHg) 1440 min", "setting": "[1]; Example 26, Table 5, 2.0% w/v, 30 μL topical, 1440 min (24 hours) post-dosing, mean±SEM n=8 eye, Fumarate", "value": "−2.8±2.0", "unit": "mmHg"}, {"measurement": "maximum intraocular pressure-lowering efficacy, Emax", "setting": "[1]; [3]", "value": "−4.1±2.7", "unit": "mmHg"}, {"measurement": "time of Emax", "setting": "[1]; [3]", "value": 300, "unit": "min"}]}
{"smiles": "CCCOc1ccc(S(=O)(=O)N2CCN(CCO[N+](=O)[O-])CC2)cc1-c1nc2c(CCC)cn(CC)c2c(=O)[nH]1", "note": "[PDE5 nitrate ester, 2-(4-(3-(5-ethyl-4-oxo-7-propyl-4,5-dihydro-3H-pyrrolo[3,2-d]pyrimidin-2-yl)-4-propoxyphenylsulfonyl)piperazin-1-yl)ethyl Nitrate, reference compound]", "values": [{"measurement": "IOP change (mmHg) E180 min", "setting": "[2]; Example 25, Table 4, 180 min post-dosing, topical, 0.5 μmoles/eye, mean±SEM n=6-9", "value": "0.3 ± 0.8", "unit": "mmHg"}, {"measurement": "time post dosing of Emax", "setting": "[2]; Example 25, Table 4, topical, 0.5 μmoles/eye", "value": 60, "unit": "min"}, {"measurement": "IOP change (mmHg) Emax", "setting": "[2]; Example 25, Table 4, topical, 0.5 μmoles/eye, change versus basal and vehicle, mean±SEM n=6-9", "value": "−2.6 ± 0.5", "unit": "mmHg"}]}
{"smiles": "CCCOc1ccc(S(=O)(=O)N2CCN(CCOC(=O)CCOC[C@@H](CO[N+](=O)[O-])O[N+](=O)[O-])CC2)cc1-c1nc2c(CCC)cn(CC)c2c(=O)[nH]1.O=C(O)CC(O)(CC(=O)O)C(=O)O", "note": "[Compound (1)-(2S)-citrate salt, (S)-2-(4-(3-(5-ethyl-4-oxo-7-propyl-4,5-dihydro-3H-pyrrolo[3,2-d]pyrimidin-2-yl)-4-propoxyphenylsulfonyl)piperazin-1-yl)ethyl 3-[2,3-bis(nitrooxy)propoxy]propanoate citrate]", "values": [{"measurement": "IOP change (mmHg) 30 min", "setting": "[1]; in vivo", "value": "−4.0 ± 0.9", "unit": "mmHg"}, {"measurement": "IOP change (mmHg) 60 min", "setting": "[1]; in vivo", "value": "−5.3 ± 1.0", "unit": "mmHg"}, {"measurement": "IOP change (mmHg) 180 min", "setting": "[1]; in vivo", "value": "−4.9 ± 1.5", "unit": "mmHg"}, {"measurement": "IOP change (mmHg) 300 min", "setting": "[1]; in vivo", "value": "−4.4 ± 0.9", "unit": "mmHg"}, {"measurement": "IOP change (mmHg) 1440 min", "setting": "[1]; in vivo", "value": "−2.6 ± 1.3", "unit": "mmHg"}, {"measurement": "IOP change (mmHg) E300 min", "setting": "[1]; in vivo", "value": "−5.3 ± 1.9", "unit": "mmHg"}, {"measurement": "IOP change (mmHg) Emax", "setting": "[1]; in vivo", "value": "−7.0 ± 0.9 (60 min) mmHg"}, {"measurement": "IOP change (mmHg) E180 min", "setting": "[2]; rabbit, in vivo", "value": "−1.8 ± 0.8", "unit": "mmHg"}, {"measurement": "IOP change (mmHg) Emax", "setting": "[2]; rabbit, in vivo", "value": "−3.8 ± 0.5 (60 min) mmHg"}, {"measurement": "IOP change at Emax", "setting": "[2]; rabbit, in vivo", "value": "−3.8 ± 0.5 (60 min)"}]}
